Test results taken from PMC4450297, “Screening Active Compounds from Garcinia Species Native to China Reveals Novel Compounds Targeting the STAT/JAK Signaling Pathway” (BioMed Research International, 2015).

Legend:
Test in all cases: Cell panel screen (CellTiter-Glo)
Type in all cases: cell-based, human
A704 = details: Homo sapiens; A704 (Kidney), 20 micromolar, 72 hrs; read-out: Percent Inhibition
Method in brief: (§1)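 Percent growth inhibition at one concentration (20 μM final) after 72 h treatment, derived from cellular ATP luminescence and normalised between DMSO-treated cells and wells lacking cells.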

BT-474 = details: Homo sapiens; BT-474 (Breast), 20 micromolar, 72 hrs; read-out: Percent Inhibition
Method in brief: as §1

BT-549 = details: Homo sapiens; BT-549 (Breast), 20 micromolar, 72 hrs; read-out: Percent Inhibition
Method in brief: as §1

Bel-7402 = details: Homo sapiens; Bel-7402 (Liver), 20 micromolar, 72 hrs; read-out: Percent Inhibition
Method in brief: as §1

C3A = details: Homo sapiens; C3A (Liver), 20 micromolar, 72 hrs; read-out: Percent Inhibition
Method in brief: as §1

C8166 = details: Homo sapiens; C8166 (Leukemia), 20 micromolar, 72 hrs; read-out: Percent Inhibition
Method in brief: as §1

CCF-STTG1 = details: Homo sapiens; CCF-STTG1 (Brain), 20 micromolar, 72 hrs; read-out: Percent Inhibition
Method in brief: as §1

CW-2 = details: Homo sapiens; CW-2 (Colon), 20 micromolar, 72 hrs; read-out: Percent Inhibition
Method in brief: as §1

ChaGo-K-1 = details: Homo sapiens; ChaGo-K-1 (Lung), 20 micromolar, 72 hrs; read-out: Percent Inhibition
Method in brief: as §1

HCC1395 = details: Homo sapiens; HCC1395 (Breast), 20 micromolar, 72 hrs; read-out: Percent Inhibition
Method in brief: as §1

HCC1569 = details: Homo sapiens; HCC1569 (Breast), 20 micromolar, 72 hrs; read-out: Percent Inhibition
Method in brief: as §1

HCC1599 = details: Homo sapiens; HCC1599 (Breast), 20 micromolar, 72 hrs; read-out: Percent Inhibition
Method in brief: as §1

HEC-1-A = details: Homo sapiens; HEC-1-A (Uterus), 20 micromolar, 72 hrs; read-out: Percent Inhibition
Method in brief: as §1

HGC-27 = details: Homo sapiens; HGC-27 (Stomach), 20 micromolar, 72 hrs; read-out: Percent Inhibition
Method in brief: as §1

HPAF-II = details: Homo sapiens; HPAF-II (Pancreas), 20 micromolar, 72 hrs; read-out: Percent Inhibition
Method in brief: as §1

J82 = details: Homo sapiens; J82 (Urinary bladder), 20 micromolar, 72 hrs; read-out: Percent Inhibition
Method in brief: as §1

MSTO-211-H = details: Homo sapiens; MSTO-211-H (Lung), 20 micromolar, 72 hrs; read-out: Percent Inhibition
Method in brief: as §1

NCI-H1770 = details: Homo sapiens; NCI-H1770 (Lung), 20 micromolar, 72 hrs; read-out: Percent Inhibition
Method in brief: as §1

NCI-H2347 = details: Homo sapiens; NCI-H2347 (Lung), 20 micromolar, 72 hrs; read-out: Percent Inhibition
Method in brief: as §1

NCI-H2405 = details: Homo sapiens; NCI-H2405 (Lung), 20 micromolar, 72 hrs; read-out: Percent Inhibition
Method in brief: as §1

NCI-H28 = details: Homo sapiens; NCI-H28 (Lung), 20 micromolar, 72 hrs; read-out: Percent Inhibition
Method in brief: as §1

Panc 03.27 = details: Homo sapiens, PANC-03-27; Panc 03.27 (Pancreas), 20 micromolar, 72 hrs; read-out: Percent Inhibition
Method in brief: as §1

RL95 = details: Homo sapiens; RL95 (Uterus), 20 micromolar, 72 hrs; read-out: Percent Inhibition
Method in brief: as §1

SW13 = details: Homo sapiens; SW13 (Adrenal gland), 20 micromolar, 72 hrs; read-out: Percent Inhibition
Method in brief: as §1

T47D = details: Homo sapiens; T47D (Breast), 20 micromolar, 72 hrs; read-out: Percent Inhibition
Method in brief: as §1

T98G = details: Homo sapiens; T98G (Brain), 20 micromolar, 72 hrs; read-out: Percent Inhibition
Method in brief: as §1

TCCSUP = details: Homo sapiens, TCC-SUP; TCCSUP (Urinary bladder), 20 micromolar, 72 hrs; read-out: Percent Inhibition
Method in brief: as §1

ZR-75-30 = details: Homo sapiens; ZR-75-30 (Breast), 20 micromolar, 72 hrs; read-out: Percent Inhibition
Method in brief: as §1

SMILES | inhibition at 20 µM (A704) [%] | inhibition at 20 µM (BT-474) [%] | inhibition at 20 µM (BT-549) [%] | inhibition at 20 µM (Bel-7402) [%] | inhibition at 20 µM (C3A) [%] | inhibition at 20 µM (C8166) [%] | inhibition at 20 µM (CCF-STTG1) [%] | inhibition at 20 µM (CW-2) [%] | inhibition at 20 µM (ChaGo-K-1) [%] | inhibition at 20 µM (HCC1395) [%] | inhibition at 20 µM (HCC1569) [%] | inhibition at 20 µM (HCC1599) [%] | inhibition at 20 µM (HEC-1-A) [%] | inhibition at 20 µM (HGC-27) [%] | inhibition at 20 µM (HPAF-II) [%] | inhibition at 20 µM (J82) [%] | inhibition at 20 µM (MSTO-211-H) [%] | inhibition at 20 µM (NCI-H1770) [%] | inhibition at 20 µM (NCI-H2347) [%] | inhibition at 20 µM (NCI-H2405) [%] | further results
CC(C)=CCC/C(C)=C/Cc1c(O)c(CC=C(C)C)c2c(c1O)C(=O)C1=C[C@@H]3C[C@H]4C(C)(C)O[C@@](C/C=C(\C)C=O)(C3=O)[C@@]14O2 [GB49] | 98 | 99 | 99 | 98 | 97 | 99 | 99 | 99 | 99 | 99 | 99 | 99 | 99 | 98 | 98 | 98 | 99 | 99 | 98 | 99 | inhibition at 20 µM (NCI-H28): 97%; inhibition at 20 µM (Panc 03.27): 98%; inhibition at 20 µM (RL95): 99%; inhibition at 20 µM (SW13): 99%; inhibition at 20 µM (T47D): 99%; inhibition at 20 µM (T98G): 99%; inhibition at 20 µM (TCCSUP): 99%; inhibition at 20 µM (ZR-75-30): 100%
CC(C)=CCC[C@@]1(C)C=Cc2c(O)c3c(c(C/C=C(\C)CO)c2O1)O[C@]12C(=C[C@@H]4C[C@H]1C(C)(C)O[C@@]2(C/C=C(/C)C(=O)O)C4=O)C3=O [GB40, 35-hydroxyepigambogic acid] | 98 | 99 | 99 | 99 | 98 | 99 | 99 | 99 | 98 | 98 | 99 | 99 | 99 | 99 | 99 | 99 | 98 | 99 | 98 | 99 | inhibition at 20 µM (NCI-H28): 98%; inhibition at 20 µM (Panc 03.27): 99%; inhibition at 20 µM (RL95): 99%; inhibition at 20 µM (SW13): 98%; inhibition at 20 µM (T47D): 99%; inhibition at 20 µM (T98G): 99%; inhibition at 20 µM (TCCSUP): 99%; inhibition at 20 µM (ZR-75-30): 99%
CC(C)=CCC[C@@]1(C)C=Cc2c(O)c3c(c(CCC(C)(C)O)c2O1)O[C@]12C(=C[C@@H]4C[C@H]1C(C)(C)O[C@@]2(C/C=C(/C)C(=O)O)C4=O)C3=O [GB39, 33-hydroxyepigambogic acid] | 99 | 100 | 100 | 100 | 99 | 100 | 100 | 100 | 100 | 100 | 100 | 100 | 100 | 100 | 100 | 100 | 100 | 100 | 99 | 100 | inhibition at 20 µM (NCI-H28): 99%; inhibition at 20 µM (Panc 03.27): 100%; inhibition at 20 µM (RL95): 100%; inhibition at 20 µM (SW13): 100%; inhibition at 20 µM (T47D): 100%; inhibition at 20 µM (T98G): 100%; inhibition at 20 µM (TCCSUP): 100%; inhibition at 20 µM (ZR-75-30): 100%
